Data as given in patent US10323013B2, “Inhibitors of the IRE-1/XBP-1 pathway and methods of using thereof” (H. LEE MOFFITT CANCER CENTER AND RESEARCH INSTITUTE, INC., priority 2013, dated 2019).
Entries after “also recorded” stand apart in the source; their conditions may differ.

Assays:
XBP-1s expression = assay: Inhibition of XBP-1s expression in LPS-stimulated mouse B cells (immunoblots); format: cell-based; settings: LPS 48 h, then inhibitor 20 μM for 24 h (Example 3 prints 20 mM)
Description: The protein concentrations of the supernatants were determined by BCA assay (Pierce). […] Proteins were transferred to nitrocellulose membranes, blocked in 5% milk (wt/vol in PBS), and immunoblotted with the indicated antibodies and appropriate horseradish peroxidase-conjugated secondary antibodies. Following multiple washes in PBS, the blots were developed using Western Lighting Chemiluminescence Reagent (Perkin-Elmer).
(§2) Protein concentrations were determined by BCA assays (Pierce). […] Proteins were transferred to nitrocellulose membranes, blocked in 5% non-fat milk (wt/vol in PBS), and immunoblotted with indicated primary antibodies and appropriate horseradish peroxidase-conjugated secondary antibodies. Immunoblots were developed using Western Lighting Chemiluminescence Reagent (Perkin-Elmer).

Eμ-TCL1 CLL cells = assay: Cell proliferation XTT assay, Eμ-TCL1 CLL cells; format: cell-based, mouse; settings: 20 μM, 3 days
Description: (§1) Eμ-TCL1, MEC1, MEC2, WaC3, or primary human CLL cells were grown in 96-well cell culture plates overnight and then treated with fresh phenol red-free culture medium containing STF-083010 (50 μM), A-I06 (50 μM), A-I07 (50 μM) or fludarabine (30 μM). […] Briefly, 50 μl XTT labeling reagent was combined with 100 μl electron-coupling reagent, and the mixture was applied to each well of the 96-well plates. The test was based on cleavage of the yellow tetrazolium salt XTT by mitochondrial dehydrogenases of the metabolic active cells to form the orange formazan compound, which can be spectrophotometrically quantified at 492 nm using a BioTek microplate reader.

primary human CLL cells = assay: Cell proliferation XTT assay, primary human CLL cells; format: cell-based; settings: 20 μM, 3 days
Description: as §1

[1] = Pharmacokinetics of B-I09 in mouse plasma; format: in vivo; settings: 50 mg/kg intraperitoneally
Description: In vivo pharmacokinetics studies were carried out at Agilux Laboratories, Inc. (Worchester, Mass.) using male CD-1 mice (Charles River Laboratories, Wilmington, Mass.). B-I09 was administered intraperitoneally at 50 mg/kg as a solution in DMSO to a group of 3 male CD-1 mice. Compound blood was collected via tail snip into calibrated microvette tubes containing K2EDTA at 0.25, 0.5, 1, 2, 4, 8, and 24 h post dosing. Blood samples were stored on wet ice until processed to plasma by centrifugation within 1 hour of collection. All plasma samples were transferred to 96 well plates and stored at −80° C. until analyzed for B-I09 concentration via LC/MS/MS using a C18 RP-HPLC column (2.1×50 mm) and an acetonitrile:water (with 0.1% formic acid) mobile phase elution gradient. B-I09 was quantified by analysis with API 5500 TurbolonSpray positive ion MS detection. A non-compartmental model was applied to calculate pharmacokinetic parameters using WinNonlin 4.2 software.

CLL-bearing Eμ-TCL1 mice = format: in vivo
Description: (B) CLL-bearing Eμ-TCL1 mice were intraperitoneally injected with DMSO (n=3) or B-I09 (50 mg/kg in DMSO, n=8) daily for the first 5 days weekly for three weeks. Blood was collected to measure lymphocyte numbers using a HemaTrue Hematology Analyzer (HESKA). Data were compared with lymphocyte counts prior to B-I09 injections, and plotted as mean±SEM. (C) Lymphocyte counts in the peripheral blood of B-I09-treated Eμ-TCL1 mice (n=8) were plotted as mean±SEM. […] (E) Splenocytes from DMSO- or B-I09-injected Eμ-TCL1 mice were stained with IgM-PE-Cy7, B220-FITC, CD5-APC, Annexin V-PE and 7-AAD. Gated IgM+/B220+/CD5+ splenic CLL cells were analyzed for Annexin V- and/or 7-AAD-positive populations. (F) Percentages of apoptotic cells in gated IgM^+/B220^+/CD5^+ CLL populations from spleens of DMSO-injected (n=3) or B-I09-injected (n=8) Eμ-TCL1 mice were plotted as mean±SEM. (G) Weight of DMSO-injected (n=3) or B-I09-injected (n=8) Eμ-TCL1 mice was plotted as mean±SD. (H) Paraffin-embedded sections of indicated organs from Eμ-TCL1 mice receiving three weeks of injections with DMSO or B-I09 were stained with hematoxylin and eosin.
Tumor-bearing Eμ-TCL1 mice in which CLL cells comprise the majority of the lymphocytes in the peripheral blood (FIG. 33) were selected. The mice were then treated with 50 mg/kg B-I09 on the first five days of each week for three weeks. […] Since CLL cells proliferate in secondary lymphoid organs and are protected from cell death through interactions with microenvironments, whether B-I09 has an effect on CLL cells residing in the spleen was evaluated.

[2] = Degradation (chemical stability) studies by HPLC/LCMS; format: physicochemical
Description: The degradation of analog 24 was plotted as a function of time upon exposure to FRET-suppression assay buffer at rt. Aliquots were partitioned with MeOH and injected onto LCMS (UV monitored at 320 nm) and peaks integrated relative to internal standard.
A 20 mM stock solution of B-I09 in DMSO was diluted to 0.5 mM in FRET assay buffer (20 mM HEPES, pH 7.5, 50 mM KOAc, 0.5 mM MgCl2, 3 mM DTT, 0.4% PEG) or cell culture media (RPMI supplemented with 10% fetal bovine serum). The FRET assay buffer and cell culture media solutions were incubated at room temperature and 37° C., respectively. At various time points, a 50 μL aliquot of each solution was added to 50 μL of methanol and the mixture analyzed by analytical reverse-phase HPLC (C18 4 mm×150 mm column, 1 mL/min flow rate) with acetonitrile/water (0.1% formic acid) as eluent. Absorbance was read at 320 nm and the degradation product (aldehyde) was identified by LCMS and co-injection with pure synthetic sample. Degradation studies were carried out in duplicate and data points reported as the mean of two values.

[3] = Aqueous solubility (stated in words); format: physicochemical
XBP-1 mRNA splicing = XBP-1 mRNA splicing by RT-PCR; format: cell-based; settings: human WaC3 CLL cells, 24 h
Description: Total RNA was isolated using TRIzol reagent (Invitrogen). Complementary DNA was synthesized from RNA using Superscript II reverse transcriptase (Invitrogen).

phosphorylation of BTK = assay: BCR activation and phosphorylation assay; format: cell-based; settings: wild-type and Eμ-TCL1 B cells, B-I09 20 μM, F(ab′)2 anti-mouse IgM
Description: XBP-1^WT/Eμ-TCL1 B cells, XBP-1^KO/Eμ-TCL1 B cells, B-I09-treated wild-type B cells or B-I09-treated Eμ-TCL1 B cells were suspended in RPMI serum-free media supplemented with 25 mM Hepes, stimulated with F(ab′)^2 fragments of the goat anti-mouse IgM antibody (20 μg/ml) (SouthemBiotech) for 2 min, and lysed immediately by adding ice-cold lysis buffer (50 mM Tris-HCl, pH 8.0; 150 mM NaCl; 1% Triton X-100; 1 mM EDTA) supplemented with protease inhibitor cocktail (Roche), 4 mM sodium pyrophosphate, 2 mM sodium vanadate and 10 mM sodium fluoride. The lysates were analyzed by SDS-PAGE. Phosphorylated proteins of interest were detected by immunoblots using phospho-specific antibodies.

[4] = test system: XBP-1s expression in Mino cells; assay: Inhibition of XBP-1s expression in Mino cells (immunoblots and densitometry); format: cell-based, human; settings: various doses, 24 h
Description: as §2

[5] = test system: XBP-1s expression in Jeko cells; assay: Inhibition of XBP-1s expression in Jeko cells (immunoblots and densitometry); format: cell-based, human; settings: various doses, 24 h
Description: as §2

Mino and Jeko cells = assay: PARP cleavage by immunoblot in Mino and Jeko cells; settings: 50 mM (so in the source), 72 h
Description: Cells were lysed for the analysis of the indicated proteins by immunoblot.
as §2

MEC1 = assay: cells; settings: Homo sapiens, MEC1, 48 h, read-out: GI50 (50% growth inhibition) concentration
MEC2 = assay: cells; settings: Homo sapiens, MEC2, 48 h, read-out: GI50 (50% growth inhibition) concentration
WaC3 = assay: cells; settings: Homo sapiens, 48 h, read-out: GI50 (50% growth inhibition) concentration

Question: With `O=c1oc2c(C3OCCCO3)c(O)ccc2c2c1CNCC2` [Compound 28, 7-(1,3-dioxan-2-yl)-8-hydroxy-3,4-dihydro-1H-chromeno[3,4-c]pyridin-5(2H)-one] as the molecule, how does the “inhibition of XBP-1s expression (in words)” value (XBP-1s expression) read?
Answer: highly effective

Question: What about the “inhibition of mouse CLL cell growth (in words)” value (Eμ-TCL1 CLL cells) of the same molecule?
Answer: more effective than B-H09 and 4μ8C

Question: And the “inhibition of growth of CLL cells from human patients (in words)” value (primary human CLL cells)?
Answer: most potent inhibitor

Question: What about the peak concentration [1] of the same molecule?
Answer: ~39 µM

Question: What about the “time of peak concentration after administration” value [1] of the same molecule?
Answer: 15 min

Question: What about the half-life ([1]; male, CD-1, ip) of the same molecule?
Answer: ~1.5 h

Question: And the “apoptotic CD5+ CLL cells in the spleens (in words)” value (CLL-bearing Eμ-TCL1 mice; 50 mg/kg for three weeks vs DMSO)?
Answer: significant increase

Question: And the “CLL in the peripheral blood (in words)” value (CLL-bearing Eμ-TCL1 mice; 50 mg/kg i.p., first five days of each week for three weeks)?
Answer: Clear CLL regression

Question: What about the “numbers of lymphocytes in the peripheral blood (in words)” value (CLL-bearing Eμ-TCL1 mice; after three weeks, normal range 500-5000 cells/μL) of the same molecule?
Answer: dropped close to the normal range

Question: And the “expression of XBP-1s in CLL cells from peripheral blood (in words)” value (CLL-bearing Eμ-TCL1 mice; immunoblots, B-I09-injected mice)?
Answer: inhibits the expression of XBP-1s

Question: And the “adverse effects or toxicity to mice (in words)” value (CLL-bearing Eμ-TCL1 mice; three weeks of treatment)?
Answer: no apparent adverse effects or toxicity

Question: And the “weight loss and histological changes to vital organs (liver, lungs, kidney, heart)” value (CLL-bearing Eμ-TCL1 mice; three weeks of treatment)?
Answer: no significant weight loss or apparent histological changes

Question: And the “fraction intact in cell culture media” value ([2]; 37° C., 24 h)?
Answer: greater than 50%

Question: And the half-life at 0.5 mM ([2]; cell culture media, 37° C., read-out: t1/2 in cell culture media (converted))?
Answer: ~30 h

Question: And the “stability of 1,3-dioxane group in FRET-suppression assay buffer (in words)” value ([2]; room temperature, up to 48 h, listed as B-I09)?
Answer: remains completely intact; also recorded: stable

Question: What about the “solubility (in words)” value [3] of the same molecule?
Answer: water soluble

Question: What about the “inhibition of splicing of XBP-1 mRNA (in words)” value (XBP-1 mRNA splicing) of the same molecule?
Answer: highly effective

Question: What about the “BCR signaling, phosphorylation of BTK (in words)” value (phosphorylation of BTK) of the same molecule?
Answer: reduced phosphorylation of BTK

Question: For `CC(=O)N1CCc2c(c(=O)oc3c(C=O)c(O)ccc23)C1` [Compound 29, 3-acetyl-8-hydroxy-5-oxo-2,3,4,5-tetrahydro-1H-chromeno[3,4-c]pyridine-7-carbaldehyde], which “IC50 for blocking XBP-1s expression (in words)” value [4] is on record?
Answer: sub-micromolar range

Question: What about the “IC50 for blocking XBP-1s expression (in words)” value [5] of the same molecule?
Answer: sub-micromolar range

Question: With `CN1CCc2c(c(=O)oc3c(C=O)c(O)ccc23)C1` [Compound 30, 8-hydroxy-3-methyl-5-oxo-2,3,4,5-tetrahydro-1H-chromeno[3,4-c]pyridine-7-carbaldehyde] as the molecule, how does the “PARP cleavage (in words)” value (Mino and Jeko cells) read?
Answer: induced PARP cleavage more strongly than either 21b or 5

Question: With `C=CC(=O)N1CCC[C@@H](n2nc(-c3ccc(Oc4ccccc4)cc3)c3c(N)ncnc32)C1` [ibrutinib] as the molecule, how does the GI50 (MEC1) read?
Answer: 10 to 20 µM

Question: And the GI50 (MEC2)?
Answer: 10 to 20 µM

Question: What about the GI50 (WaC3) of the same molecule?
Answer: 10 to 20 µM
